From DBAASP
Converted amounts (≈) assume the structure as drawn. One block for each molecule: values may come before it.

Tests used:
Test in all cases: ≥ marks a high value that may be exact or a test limit, other limits are often not marked, values filed in µg/mL are converted to µM
Acinetobacter baumannii = system: Acinetobacter baumannii
Aeromonas hydrophila = system: Aeromonas hydrophila
Alcaligenes faecalis = system: Alcaligenes faecalis
Bacillus megaterium = system: Bacillus megaterium
[1] = system: Dermacoccus nishinomiyaensis
Enterobacter cloacae = system: Enterobacter cloacae
Escherichia coli D31 = system: Escherichia coli D31
Haemophilus Influenzae = system: Haemophilus Influenzae
Klebsiella aerogenes = system: Klebsiella aerogenes
[2] = system: Micrococcus luteus IFO 12708
Pseudomonas aeruginosa = system: Pseudomonas aeruginosa
Salmonella typhimurium = system: Salmonella typhimurium
Staphylococcus aureus = system: Staphylococcus aureus
[3] = system: Staphylococcus epidermidis
[4] = system: Staphylococcus haemolyticus
[5] = system: Staphylococcus saprophyticus
Vibrio alginolyticus = system: Vibrio alginolyticus
Aeromonas sobria 090223 = system: Aeromonas sobria 090223
[6] = system: Candida albicans ATCC 2002
Candida glabrata 0902 = system: Candida glabrata 0902
[7] = system: Enterococcus faecium 1299
Escherichia coli 1342 = system: Escherichia coli 1342
[8] = system: Escherichia coli ATCC 25922
Klebsiella pneumoniae = system: Klebsiella pneumoniae
[9] = system: Nocardia asteroides 090312
Proteus mirabilis 090223 = system: Proteus mirabilis 090223
[10] = system: Staphylococcus aureus 090223
[11] = system: Staphylococcus aureus 1349
[12] = system: Staphylococcus aureus ATCC 2592
[13] = system: Stenotrophomonas maltophilia 090223
[14] = system: Citrobacter freundii ATCC 8090
[15] = system: Escherichia coli ATCC 28922
[16] = system: Pseudomonas aeruginosa ATCC 9027
[17] = system: Bacteroides fragilis ATCC 25285
Bacteroides fragilis = system: Bacteroides fragilis
[18] = system: Candida albicans ATCC 90028
[19] = system: Clostridium perfringens ATCC 10543
Clostridium septicum = system: Clostridium septicum
[20] = system: Clostridium tertium ATCC 19465
[21] = system: Cutibacterium acnes ATCC 11828
Cutibacterium acnes = system: Cutibacterium acnes
[22] = system: Enterobacter cloacae HNTCC 53001
[23] = system: Enterococcus faecalis ATCC 29212
Fusobacterium nucleatum = system: Fusobacterium nucleatum
[24] = system: Fusobacterium varium ATCC 27725
[25] = system: Klebsiella pneumoniae KK3 9904
[26] = system: Peptoniphilus asaccharolyticus ATCC 29743
[27] = system: Peptostreptococcus anaerobius
[28] = system: Prevotella melaninogenica
[29] = system: Proteus mirabilis ATCC 25933
[30] = system: Pseudomonas aeruginosa ATCC 27853
[31] = system: Salmonella enterica subsp. enterica serovar Typhimurium LT2
[32] = system: Staphylococcus aureus NCTC 8325
[33] = system: Staphylococcus aureus T17/13
[34] = system: Staphylococcus aureus T7/5
[35] = system: Staphylococcus epidermidis RP62A

SMILES: CC(C)C[C@H](NC(=O)[C@H](Cc1c[nH]c2ccccc12)NC(=O)[C@H](C)NC(=O)CNC(=O)[C@@H](N)CC(C)C)C(=O)N[C@@H](C)C(=O)NCC(=O)N[C@@H](CCCCN)C(=O)N[C@H](C(=O)N[C@@H](C)C(=O)NCC(=O)N[C@H](C(=O)N[C@H](C(=O)N[C@@H](C)C(=O)N[C@H](C(=O)N[C@@H](Cc1ccc(O)cc1)C(=O)N[C@@H](C)C(=O)N[C@@H](Cc1c[nH]c2ccccc12)C(=O)N[C@@H](CC(N)=O)C(=O)N[C@@H](CCCN=C(N)N)C(=O)N[C@@H](Cc1ccc(O)cc1)C(=O)N[C@H](C(N)=O)C(C)C)[C@@H](C)O)C(C)C)[C@@H](C)O)C(C)C [LGAWLAGKVAGTVATYAWNRYV]
- MIC (Acinetobacter baumannii): 25 µM (≈ 59.2 µg/mL)
- MIC (Aeromonas hydrophila): 25 µM (≈ 59.2 µg/mL)
- MIC (Alcaligenes faecalis): 25 µM (≈ 59.2 µg/mL)
- MIC (Bacillus megaterium): 25 µM (≈ 59.2 µg/mL)
- MIC [1]: 0.566 µM (≈ 1.34 µg/mL)
- MIC (Enterobacter cloacae): 25 µM (≈ 59.2 µg/mL)
- MIC (Escherichia coli D31): 25 µM (≈ 59.2 µg/mL)
- MIC (Haemophilus Influenzae): 25 µM (≈ 59.2 µg/mL)
- MIC (Klebsiella aerogenes): 25 µM (≈ 59.2 µg/mL)
- MIC [2]: 0.566 µM (≈ 1.34 µg/mL)
- MIC (Pseudomonas aeruginosa): > 25 µM
- MIC (Salmonella typhimurium): 25 µM (≈ 59.2 µg/mL)
- MIC (Staphylococcus aureus): 4.24 µM (≈ 10 µg/mL)
- MIC [3]: 4.24 µM (≈ 10 µg/mL)
- MIC [4]: 4.24 µM (≈ 10 µg/mL)
- MIC [5]: 4.24 µM (≈ 10 µg/mL)
- MIC (Vibrio alginolyticus): 1.13 µM (≈ 2.68 µg/mL)

- MIC (Acinetobacter baumannii): 5.69 µM (≈ 13.3 µg/mL)
- MIC (Aeromonas sobria 090223): 4.02 µM (≈ 9.39 µg/mL)
- MIC [6]: 0.984 µM (≈ 2.3 µg/mL)
- MIC (Candida glabrata 0902): 16 µM (≈ 37.5 µg/mL)
- MIC [7]: 2.01 µM (≈ 4.7 µg/mL)
- MIC (Escherichia coli 1342): 2.01 µM (≈ 4.7 µg/mL)
- MIC [8]: 8.04 µM (≈ 18.8 µg/mL)
- MIC (Klebsiella pneumoniae): > 42.8 µM
- MIC [9]: 8.04 µM (≈ 18.8 µg/mL)
- MIC (Proteus mirabilis 090223): 4.02 µM (≈ 9.39 µg/mL)
- MIC [10]: 0.984 µM (≈ 2.3 µg/mL)
- MIC [11]: 8.04 µM (≈ 18.8 µg/mL)
- MIC [12]: 8.04 µM (≈ 18.8 µg/mL)
- MIC [13]: 2.01 µM (≈ 4.7 µg/mL)
SMILES: CC[C@H](C)[C@@H]1NC(=O)[C@H](CC(C)C)NC(=O)[C@@H](NC(=O)[C@H](Cc2ccccc2)NC(=O)[C@H](CC(C)C)NC(=O)[C@H](CO)NC(=O)[C@@H]2CCCN2C(=O)[C@H](CC(C)C)NC(=O)[C@H](CCCN=C(N)N)NC(=O)[C@H](CCCCN)NC(=O)[C@@H](NC(=O)[C@@H](NC(=O)[C@H](C)NC(=O)CNC(=O)[C@H](CC(C)C)NC(=O)[C@H](C)NC(=O)[C@@H](N)Cc2ccccc2)C(C)C)[C@@H](C)O)CSSC[C@@H](C(=O)O)NC(=O)[C@H](CCCCN)NC(=O)[C@H](CCCN=C(N)N)NC(=O)[C@H]([C@@H](C)O)NC1=O [FALGAVTKRLPSLFCLITRKC]

- MIC [14]: ≥ 75 µM
- MIC [15]: ≥ 50 µM
- MIC [16]: 8 µM (≈ 14.1 µg/mL)
SMILES: CC(C)C[C@H](NC(=O)[C@H](CC(C)C)NC(=O)CNC(=O)CNC(=O)CNC(=O)CNC(=O)CNC(=O)CNC(=O)CNC(=O)CNC(=O)CNC(=O)[C@H](CC(C)C)NC(=O)[C@H](CC(C)C)NC(=O)[C@@H]1CCCN1C(=O)CNC(=O)[C@H](CC(C)C)NC(=O)[C@H](CC(C)C)NC(=O)CNC(=O)CNC(=O)[C@H](CC(C)C)NC(=O)[C@H](CC(C)C)NC(=O)CN)C(=O)O [GLLGGLLGPLLGGGGGGGGGLL]

- MIC [17]: ≥ 50 µM
- MIC (Bacteroides fragilis): ≥ 50 µM
- MIC [18]: ≥ 80 µM
- MIC [19]: 12.5 µM (≈ 32.9 µg/mL)
- MIC (Clostridium septicum): ≥ 50 µM
- MIC [20]: 12.5 µM (≈ 32.9 µg/mL)
- MIC [21]: 12.5 µM (≈ 32.9 µg/mL)
- MIC (Cutibacterium acnes): 6 µM (≈ 15.8 µg/mL)
- MIC [22]: 6 µM (≈ 15.8 µg/mL)
- MIC [23]: 12.5 µM (≈ 32.9 µg/mL)
- MIC [8]: 2.5 µM (≈ 6.57 µg/mL)
- MIC (Fusobacterium nucleatum): ≥ 50 µM
- MIC [24]: ≥ 50 µM
- MIC [25]: 12.5 µM (≈ 32.9 µg/mL)
- MIC [26]: ≥ 50 µM
- MIC [27]: 25 µM (≈ 65.7 µg/mL)
- MIC [28]: 6 µM (≈ 15.8 µg/mL)
- MIC [29]: ≥ 100 µM
- MIC [30]: 6 µM (≈ 15.8 µg/mL)
- MIC [31]: 25 µM (≈ 65.7 µg/mL)
- MIC [32]: ≥ 40 µM
- MIC [33]: 10 µM (≈ 26.3 µg/mL)
- MIC [34]: 20 µM (≈ 52.6 µg/mL)
- MIC [35]: 6 µM (≈ 15.8 µg/mL)
SMILES: CC[C@H](C)[C@H](NC(=O)[C@@H](N)CCCN=C(N)N)C(=O)NCC(=O)N[C@H](C(=O)N[C@@H](CC(C)C)C(=O)N[C@@H](CC(C)C)C(=O)N[C@@H](C)C(=O)N[C@@H](CCCN=C(N)N)C(=O)N[C@@H](CC(C)C)C(=O)N1CCC[C@H]1C(=O)N[C@@H](CCCCN)C(=O)N[C@@H](CC(C)C)C(=O)N[C@@H](Cc1ccccc1)C(=O)N[C@@H](CO)C(=O)N[C@@H](CC(C)C)C(=O)N[C@@H](Cc1ccccc1)C(=O)N[C@@H](CCCCN)C(=O)N[C@@H](CC(C)C)C(=O)N[C@@H](CCSC)C(=O)NCC(=O)N[C@@H](CCCCN)C(=O)N[C@@H](CCCCN)C(=O)N[C@H](C(=O)O)C(C)C)C(C)C [RIGVLLARLPKLFSLFKLMGKKV]
